Measured values: patent US20220194962A1, “AZAZINOINDAZOLE DERIVATIVE, PREPARATION METHOD THEREFOR AND USE THEREOF” (CHENGDU SCIMOUNT PHARMATECH CO., LTD., priority 2019, published 2022)
Like-named read-outs stand apart in the source and are kept apart here.

Biological target: T1, human 5-HT3 receptor (Homo sapiens, UniProt P46098)
T1 sequence (P46098 24-478): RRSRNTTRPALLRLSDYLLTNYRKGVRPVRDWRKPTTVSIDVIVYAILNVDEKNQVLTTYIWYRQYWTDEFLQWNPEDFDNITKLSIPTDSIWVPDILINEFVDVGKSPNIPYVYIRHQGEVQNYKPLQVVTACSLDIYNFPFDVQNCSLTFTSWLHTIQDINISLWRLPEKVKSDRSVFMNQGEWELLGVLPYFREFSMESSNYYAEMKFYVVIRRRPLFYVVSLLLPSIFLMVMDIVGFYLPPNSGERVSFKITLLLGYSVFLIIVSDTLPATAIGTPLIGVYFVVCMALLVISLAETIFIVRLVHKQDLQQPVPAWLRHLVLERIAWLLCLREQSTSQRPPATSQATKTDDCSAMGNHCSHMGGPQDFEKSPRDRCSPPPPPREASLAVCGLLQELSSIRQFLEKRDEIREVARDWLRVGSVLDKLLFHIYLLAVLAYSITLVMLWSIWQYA
Experiment: Affinity for human 5-HT3 receptor by scintillation proximity assay (SPA), [9-methyl-3H]BRL-43694 competition
Format: binding
Protocol: The relative affinity of the compound to human 5-HT3 receptor was detected by scintillation proximity assay (SPA). The specific procedures were as follows: the test compound was diluted to 10 mM with 100% DMSO, and then subjected to 10× gradient dilution with 100% DMSO in a 96-well plate, and each of the resultant solution was further diluted with the test buffer to provide 4× test concentration. The sample, 10 nM of [9-methyl-3H]BRL-43694, 3 μg of human 5-HT3 receptor membrane, and 0.5 mg/mL of SPA beads were incubated in 50 mM Tris-HCl (pH 7.5, 3 mM MgCl2, 1 mM EDTA and 10% DMSO), with a final volume of 0.2 mL. By successively adding 50 μL of competitive test compound or buffer, SPA beads, radioactive ligands and 5-HT3 receptor membrane, the binding reaction was performed in the wells of PicoPlates-96 well plate. After it was stirred and incubated overnight at room temperature, the plate was centrifuged at 1500 rpm for 15 min, and then incubated in dark for 30 min. Finally, the 5-min radioactivity was read in the TopCount microplate counter. Total binding control only contained the above buffer used to dilute the test compound, while the nonspecific binding was determined at the presence of 30 μM MDL-72222, and thus the specific binding was deduced by the total binding control minus the nonspecific binding. All experiments were carried out by ten concentrations of competitive ligand, and each group was established multiple holes. ALB-137391 was used as positive control.
ALB-137391 was a 5-HT3 receptor partial agonist, and provided by AMRI company, USA, with a production batch number of 1631-B-R0-01-43-01. The structure was as follows:
The half inhibitory concentration (IC50) was determined from the specific binding data by using XLfit4.1 curve fitting software of IDBS Ltd.
Inhibition constant Ki=IC50/(1+(L/KD)), wherein L=the concentration of radioactive ligands in the test, KD=the affinity of radioactive ligands to receptors.

With O=C1c2cccc3[nH]nc(c23)CCN1[C@@H]1CN2CCC1CC2 [ALB-137391, reference compound] the IC50 was 4.48 nM and the Ki was 0.81 nM.

In the case of O=C1c2ccc(Br)c3[nH]nc(c23)CCN1[C@@H]1CN2CCC1CC2 [Compound 10, (S)-3-bromo-7-(quinuclidin-3-yl)-2,7,8,9-tetrahydro-6H-azepino[5,4,3-cd]indazole-6-one], the IC50 is reported as 34.2 nM, the Ki is reported as 6.2 nM and the “affinity to human 5-HT3 receptor (in words)” value (shortened to “affinity … (in words)”) (summary of Table 1) is reported as “strong affinity”.

N#Cc1ccc2c3c(n[nH]c13)CCN([C@@H]1CN3CCC1CC3)C2=O [Compound 11, (S)-3-cyano-7-(quinuclidin-3-yl)-2,7,8,9-tetrahydro-6H-azepino[5,4,3-cd]indazole-6-one] showed a Ki of 65.1 nM and an IC50 (human 5-HT3 receptor membrane, 10 nM [9-methyl-3H]BRL-43694, SPA, overnight at room temperature, read-out: IC50) of 359 nM.

With O=C1c2ccc(O)c3[nH]nc(c23)CCN1[C@@H]1CN2CCC1CC2 [Compound 12, (S)-3-hydroxyl-7-(quinuclidin-3-yl)-2,7,8,9-tetrahydro-6H-azepino[5,4,3-cd]indazole-6-one] the IC50 was 14 nM, the Ki was 2.53 nM and the “affinity … (in words)” value (summary of Table 1) was “strong affinity”.

With [2H]c1ccc2c3c(n[nH]c13)CCN([C@@H]1CN3CCC1CC3)C2=O [Compound 13, (S)-3-deutero-7-(quinuclidin-3-yl)-2,7,8,9-tetrahydro-6H-azepino[5,4,3-cd]indazole-6-one] the IC50 was 3.31 nM, the Ki was 0.6 nM and the “affinity and inhibitory effect on 5-HT3 receptor compared with positive control ALB-137391” value (summary of Table 1) was “even better than that of positive control ALB-137391”. The “affinity … (in words)” value (summary of Table 1) was “strong affinity”.

For O=C1c2ccc(F)c3[nH]nc(c23)CCN1[C@@H]1CN2CCC1CC2 [Compound 14, (S)-3-fluoro-7-(quinuclidin-3-yl)-2,7,8,9-tetrahydro-6H-azepino[5,4,3-cd]indazole-6-one], the IC50 was 74 nM, the Ki was 13.4 nM and the “affinity … (in words)” value (summary of Table 1) was “strong affinity”.

For O=C1c2ccc(Cl)c3[nH]nc(c23)CCN1[C@@H]1CN2CCC1CC2 [Compound 15, (S)-3-chloro-7-(quinuclidin-3-yl)-2,7,8,9-tetrahydro-6H-azepino[5,4,3-cd]indazole-6-one], the IC50 was 47.1 nM, the Ki was 8.53 nM and the “affinity … (in words)” value (summary of Table 1) was “strong affinity”.
